Legend:
[1] = test system: Rat; experiment: concentration in liver after dosing; details: dosed: Potassium Perfluorobutane Sulfonate, 20 mg/kg, oral
[2] = test system: Rat; experiment: concentration in brain after dosing; details: dosed: Potassium Perfluorobutane Sulfonate, 20 mg/kg, oral
[3] = test system: Rat; experiment: concentration in plasma after dosing; details: 1 h; dosed: Potassium Perfluorobutane Sulfonate; 4 mg/kg; iv; Male; F344
[4] = test system: Rat; experiment: concentration in kidney after dosing; details: 6 h; dosed: Potassium Perfluorobutane Sulfonate; 20 mg/kg; oral; Male; Harlan Sprague Dawley
[5] = test system: Rat; experiment: concentration in plasma after dosing; details: 0.75 h; dosed: Potassium Perfluorobutane Sulfonate; 4 mg/kg; iv; Female; Harlan Sprague-Dawley
[6] = test system: Rat; experiment: concentration in plasma after dosing; details: dosed: Potassium Perfluorobutane Sulfonate, 4 mg/kg, oral, Male, Harlan Sprague Dawley
[7] = test system: Rat; experiment: concentration in kidney after dosing; details: dosed: Potassium Perfluorobutane Sulfonate, 20 mg/kg, oral
[8] = test system: Rat; experiment: concentration in plasma after dosing; details: dosed: Potassium Perfluorobutane Sulfonate, 4 mg/kg, iv, Male, F344
[9] = test system: Rat; experiment: concentration in plasma after dosing
[10] = test system: Rat; experiment: concentration in plasma after dosing; details: 1.5 h; dosed: Potassium Perfluorobutane Sulfonate; 4 mg/kg; oral; Male; Harlan Sprague Dawley
[11] = test system: rat; experiment: concentration in serum after dosing; details: dosed: benzo[a]pyrene, male, Wistar
[12] = test system: rat; experiment: amount in urine after dosing (umol); details: dosed: methanol, 100 mg/kg, iv, male, CDF(F344)/CrlBR

O=S(=O)([O-])C(F)(F)C(F)(F)C(F)(F)C(F)(F)F.[K+] [Potassium Perfluorobutane Sulfonate]
Details | concentration in brain, [2] [ng/g] | concentration in kidney, [7] [ng/g] | concentration in liver, [1] [ng/g]
0.5 h, Female, Harlan Sprague Dawley | 538 | 30100 | 29500
0.5 h, Male, Harlan Sprague Dawley | 590 | 19000 | 61000
0.5 h, Male, Harlan Sprague Dawley - this seems too small | 725 | 19900 | 95200
1 h, Female, Harlan Sprague Dawley | – | 17600 | 42000
1 h, Male, Harlan Sprague Dawley | 1120 | 14900 | 75600
3 h, Female, Harlan Sprague Dawley | – | 10900 | 5790
3 h, Male, Harlan Sprague Dawley | 769 | 19700 | 87000
6 h, Female, Harlan Sprague Dawley | – | 1290 | 910
6 h, Male, Harlan Sprague Dawley | 562 | 15200 | 51600
12 h, Male, Harlan Sprague Dawley | – | 1960 | 7420

Details | concentration in kidney [ng/g] | concentration in plasma [ng/mL]
[3] | – | 17700
[4] | 11000 | –
[5] | – | 6450
[10] | – | 12600

concentration in plasma [ng/mL]
Details | 0.75 h | 3 h | 5 min | 24 h
[6] | – | 15100 | 320 | –
[8] | 21100 | – | – | 171

concentration in plasma [ng/mL], [9], dosed: Potassium Perfluorobutane Sulfonate
Details | 4 mg/kg | 20 mg/kg
0.25 h, iv, Male, F344 | 28000 | –
0.25 h, oral, Male, Harlan Sprague Dawley | 4690 | 28700
0.5 h, iv, Female, Harlan Sprague-Dawley | 11100 | –
0.5 h, iv, Male, F344 | 23800 | –
0.5 h, oral, Male, Harlan Sprague Dawley | 9170 | –
0.75 h, iv, Female, Harlan Sprague-Dawley | 7790 | –
0.75 h, iv, Male, F344 | 23800 | –
0.75 h, oral, Male, Harlan Sprague Dawley | 9060 | 49600
1 h, iv, Female, Harlan Sprague-Dawley | 4090 | –
1 h, iv, Male, F344 | 22000 | –
1 h, oral, Male, Harlan Sprague Dawley | 12900 | –
1.5 h, iv, Male, F344 | 18500 | –
1.5 h, oral, Male, Harlan Sprague Dawley | 12100 | 63600
3 h, iv, Male, F344 | 10500 | –
3 h, oral, Male, Harlan Sprague Dawley | 15300 | –
5 min, iv, Male, F344 | 33300 | –
5 min, oral, Male, Harlan Sprague Dawley | 537 | 653
6 h, iv, Male, F344 | 6690 | –
6 h, oral, Male, Harlan Sprague Dawley | 12500 | –
9 h, oral, Male, Harlan Sprague Dawley | 8100 | 15100
12 h, iv, Male, F344 | 1600 | –
12 h, oral, Male, Harlan Sprague Dawley | 9160 | –
24 h, iv, Male, F344 | 232 | –
24 h, oral, Male, Harlan Sprague Dawley | 47.1 | 364
48 h, oral, Male, Harlan Sprague Dawley | – | 42.6

c1ccc2c(c1)cc1ccc3cccc4ccc2c1c34 [benzo[a]pyrene]
[11]
Details | concentration in serum [ng/mL]
0.3352 h, 2 mg/kg, iv | 2230
0.4717 h, 20 mg/kg, oral | 116
0.752 h, 2 mg/kg, iv | 1020
1.006 h, 2 mg/kg, iv | 635
1.061 h, 20 mg/kg, oral | 486
1.985 h, 20 mg/kg, oral | 989
2.002 h, 2 mg/kg, iv | 85.5
3.99 h, 20 mg/kg, oral | 936
4.005 h, 2 mg/kg, iv | 4.48
5.975 h, 20 mg/kg, oral | 261
5.998 h, 2 mg/kg, iv | 2.43
7.98 h, 20 mg/kg, oral | 86
8 h, 2 mg/kg, iv | 2.04
9.966 h, 20 mg/kg, oral | 16.8
24.02 h, 20 mg/kg, oral | 1.38

COc1ccc(C(=O)c2ccccc2)c(O)c1 [2-Hydroxy-4-methoxybenzophenone]
concentration in plasma [ng/mL], [9], dosed: 2-Hydroxy-4-methoxybenzophenone, F344
Details | 0.25 h | 2 h | 2.5 min | 3 h | 4 h | 6 h | 10 h | 10 min
8 mg/kg, iv, Female | 1560 | 75.6 | – | – | 36.8 | – | – | 2540
8 mg/kg, iv, Male | 1860 | 99.2 | – | – | – | – | 70.1 | 72.5
100 mg/kg, oral, Female | 86.5 | – | – | 14.5 | 10.6 | – | – | 113
100 mg/kg, oral, Male | 171 | – | – | 17.3 | 42.4 | – | – | 140
250 mg/kg, oral, Female | 331 | – | – | 71.9 | 87.1 | – | – | 32.7
250 mg/kg, oral, Male | 82.8 | – | – | 54.6 | 65.2 | – | – | 19.4
500 mg/kg, oral, Female | 231 | – | 7.13 | – | 452 | – | 49.7 | 113
500 mg/kg, oral, Male | 614 | – | – | – | 450 | 225 | 65.2 | 116

CO [methanol]
[12]
Details | amount in urine
0.9577 h | 2.05
2.957 h | 4.06
5.924 h | 5.16
9.972 h | 5.6
11.92 h | 5.58
14.94 h | 5.56

From EPA's CvTdb concentration-time database
